# Assay results taken from patent US20110263454A1, “Methods of Identifying Functional Characteristics of Promoters, Transcription Modifying Proteins and Transcription Modulating Agents” (Salk Institute for Biological Studies, priority 2008, published 2011).
# B1: HNF4a: Hepatocyte Nuclear Factor α (NR2A1), cDNA driver (protein, UniProt P41235 1-474, looked up)
# Hepatocyte nuclear factor …: MRLSKTLVDMDMADYSAALDPAYTTLEFENVQVLTMGNDTSPSEGTNLNAPNSLGVSALCAICGDRATGKHYGASSCDGCKGFFRRSVRKNHMYSCRFSRQCVVDKDKRNQCRYCRLKKCFRAGMKKEAVQNERDRISTRRSSYEDSSLPSINALLQAEVLSRQITSPVSGINGDIRAKKIASIADVCESMKEQLLVLVEWAKYIPAFCELPLDDQVALLRAHAGEHLLLGATKRSMVFKDVLLLGNDYIVPRHCPELAEMSRVSIRILDELVLPFQELQIDDNEYAYLKAIIFFDPDAKGLSDPGKIKRLRSQVQVSLEDYINDRQYDSRGRFGELLLLLPTLQSITWQMIEQIQFIKLFGMAKIDNLLQEMLLGGSPSDAPHAHHPLHPHLMQEHMGTNVIVANTMPTHLSNGQMCEWPRPRGQAATPETPQPSPPGGSGSEPYKLLPGAVATIVKPLSAIPQPTITKQEVI
# Key:
# mADRP promoter = experiment: NHR-promoter luciferase screen, mADRP promoter; type: cell-based, mouse; details: for Luc. act., normalized to lacZ / Normalized Luc. act., normalized to control: ADRP promoter, HR/ligand component; for mADRP promoter reporter activity: transcription factor +/- ligand, control = 1.00
# Procedure: (§1) The use, feasibility, and reproducibility of the functional NHR-promoter screen in a 48-well format have been tested validated. Briefly, there were co-expressed 50 ng of each NHR/NHR homodimer or NHR/RXR heterodimer with 100 ng promoter/luciferase construct and 50 ng of LacZ (as a control for transfection efficiency) in CV-1 cells using Fugene HD (Roche) as a transfection reagent (alternatively or additionally, a CMV-YFP construct can be used as a transfection control). Each of the nuclear hormone receptors that were used in these experiments was cloned into a pcDNA3.1 vector and comprised a C-terminally linked V5H6 tag. Twenty-four hours after transfection, appropriate ligands were added, where applicable, (see Table 5 for various ligands and concentrations and after 48 hrs, samples were assayed for luciferase and LacZ activity. To measure for luciferase activity 15 ul of sample was added to 30 ul of luciferase buffer (20 mM tricine, 1.07 mM MgCarbonate, 2.67 mM MgSulfate, 0.1 mM Naz-EDTA, 5 mM DTT, 5 mM ATP, 0.15 mg/ml CoA, 0.5 mM Luciferin), mixed briefly, and run in a Perkin Elmer Victor 5 luminometer. Thus, the functional NHR-promoter screen was used to observe the transcriptional activity of 29 promoters from various physiological pathways including inflammation, lipid and sugar metabolism, cholesterol transport, xenobiotic metabolism, and circadian rhythm.
# (§2) The promoters that facilitate transcription of the indicated gene products that were tested using the protocols described herein are listed in the first row of the table. The nuclear hormone receptors and, where applicable, ligands that were assayed for their transcriptional effects on the promoters are listed in the first column of the table. The data represent the luciferase activity of each sample normalized to both the lacZ activity of that sample and to a control, e.g., no NHR or ligand, as customary in the art. As described previously, these normalizations allow the transcriptional activity of each reporter cell to be compared to other samples.
# (§3) Tables 7-40 show the transcriptional effects of the hormone receptors, and, where applicable, ligands (orphan receptors are screened without ligand), on each individual promoter. […] The control data of each table are shown in their last rows.
# MCP-1 promoter = experiment: NHR-promoter luciferase screen, MCP-1 promoter; type: cell-based; details: for Normalized Luc. act., normalized to control / Luc. act., normalized to lacZ: MCP-1 promoter reporter; for Normalized Luc. act., normalized to control: HR without or with its ligand, relative to control; for Luc. act., normalized to lacZ: hormone receptor (HR) without or with its ligand; for mMCP-1 promoter reporter activity: transcription factor +/- ligand, control = 1.00
# Procedure: as §1, §2, §3
# SREBP1c promoter = experiment: NHR-promoter luciferase screen, SREBP1c promoter; type: cell-based, mouse; details: for Luc. act., normalized to lacZ / Normalized Luc. act., normalized to control: SREBP1c promoter, HR component without or with ligand; for mSREBP1-c promoter reporter activity: transcription factor +/- ligand, control = 1.00
# Procedure: as §1, §2, §3
# hG6PD promoter = experiment: NHR-promoter luciferase screen, hG6PD promoter; type: cell-based, human; details: for Luc. act., normalized to lacZ / Normalized Luc. act., normalized to control: G6PD promoter reporter, co-transfected HR, without or with its ligand; for Normalized Luc. act., normalized to control: relative to control; for luciferase activity normalized to lacZ activity and to a control, hG6PD: hG6PD promoter-luciferase, CV-1 cells, NHR +/- ligand, control = 1.00
# Procedure: as §1, §2, §3
# mPgc1b promoter = experiment: NHR-promoter luciferase screen, mPgc1b promoter; type: cell-based, mouse; details: for Luc. act., normalized to lacZ / Normalized Luc. act., normalized to control: PGC1b promoter reporter, co-transfected HR, without or with its ligand; for Normalized Luc. act., normalized to control: relative to control; for luciferase activity normalized to lacZ activity and to a control, mPgc1b: mPgc1b promoter-luciferase, CV-1 cells, NHR +/- ligand, control = 1.00
# Procedure: Briefly, there were co-expressed 50 ng of each NHR/NHR homodimer or NHR/RXR heterodimer with 100 ng promoter/luciferase construct and 50 ng of LacZ (as a control for transfection efficiency) in CV-1 cells using Fugene HD (Roche) as a transfection reagent (alternatively or additionally, a CMV-YFP construct can be used as a transfection control). Each of the nuclear hormone receptors that were used in these experiments was cloned into a pcDNA3.1 vector and comprised a C-terminally linked V5H6 tag.
# as §2, §3
# hCAR promoter = experiment: NHR-promoter luciferase screen, hCAR promoter; type: cell-based, human; details: for luciferase activity normalized to lacZ activity and to a control, hCAR: hCAR promoter-luciferase, CV-1 cells, NHR +/- ligand, control = 1.00; for Luc. act., normalized to lacZ / Normalized Luc. act., normalized to control: hCAR promoter, HR/ligand component
# Procedure: as §1, §2, §3
molecule,measurement,setting,value
"PPARg: Peroxisome proliferator activated receptor γ (NR1C3), cDNA driver","Luc. act., normalized to lacZ",mADRP promoter,891.4
same,"Normalized Luc. act., normalized to control",mADRP promoter,1.8
same,mADRP promoter reporter activity,mADRP promoter,1.79
same,"Normalized Luc. act., normalized to control",MCP-1 promoter,1.4
same,"Luc. act., normalized to lacZ",MCP-1 promoter,146.1
same,mMCP-1 promoter reporter activity,MCP-1 promoter,1.36
same,"Luc. act., normalized to lacZ",SREBP1c promoter,795.8
same,"Normalized Luc. act., normalized to control",SREBP1c promoter,2.5
same,mSREBP1-c promoter reporter activity,SREBP1c promoter,2.47
same,"Luc. act., normalized to lacZ",hG6PD promoter,66.0
same,"Normalized Luc. act., normalized to control",hG6PD promoter,1.8
same,"luciferase activity normalized to lacZ activity and to a control, hG6PD",hG6PD promoter,1.77
same,"Luc. act., normalized to lacZ",mPgc1b promoter,11.35
same,"Normalized Luc. act., normalized to control",mPgc1b promoter,1.0
same,"luciferase activity normalized to lacZ activity and to a control, mPgc1b",mPgc1b promoter,0.96
same,"luciferase activity normalized to lacZ activity and to a control, hCAR",hCAR promoter,1.58
same,"Luc. act., normalized to lacZ",hCAR promoter,49.8
same,"Normalized Luc. act., normalized to control",hCAR promoter,1.6
"RXRa: Retinoic X Receptor α (NR2B1), cDNA driver","Luc. act., normalized to lacZ",mADRP promoter,783.2
same,"Normalized Luc. act., normalized to control",mADRP promoter,1.6
same,mADRP promoter reporter activity,mADRP promoter,1.57
same,"Normalized Luc. act., normalized to control",MCP-1 promoter,1.6
same,"Luc. act., normalized to lacZ",MCP-1 promoter,170.8
same,mMCP-1 promoter reporter activity,MCP-1 promoter,1.60
same,"Luc. act., normalized to lacZ",SREBP1c promoter,521.9
same,"Normalized Luc. act., normalized to control",SREBP1c promoter,1.6
same,mSREBP1-c promoter reporter activity,SREBP1c promoter,1.62
same,"Luc. act., normalized to lacZ",hG6PD promoter,45.6
same,"Normalized Luc. act., normalized to control",hG6PD promoter,1.2
same,"luciferase activity normalized to lacZ activity and to a control, hG6PD",hG6PD promoter,1.22
same,"Luc. act., normalized to lacZ",mPgc1b promoter,8.6
same,"Normalized Luc. act., normalized to control",mPgc1b promoter,0.7
same,"luciferase activity normalized to lacZ activity and to a control, mPgc1b",mPgc1b promoter,0.72
same,"luciferase activity normalized to lacZ activity and to a control, hCAR",hCAR promoter,0.78
same,"Luc. act., normalized to lacZ",hCAR promoter,24.7
same,"Normalized Luc. act., normalized to control",hCAR promoter,0.8
"SF-1: Steroidogenic Factor 1 (NR5A1, SF1), cDNA driver","Luc. act., normalized to lacZ",mADRP promoter,1864.1
same,"Normalized Luc. act., normalized to control",mADRP promoter,3.7
same,mADRP promoter reporter activity,mADRP promoter,3.75
same,"Normalized Luc. act., normalized to control",MCP-1 promoter,2.0
same,"Luc. act., normalized to lacZ",MCP-1 promoter,217.9
same,mMCP-1 promoter reporter activity,MCP-1 promoter,2.04
same,"Luc. act., normalized to lacZ",SREBP1c promoter,916.0
same,"Normalized Luc. act., normalized to control",SREBP1c promoter,2.8
same,mSREBP1-c promoter reporter activity,SREBP1c promoter,2.84
same,"Luc. act., normalized to lacZ",hG6PD promoter,124.1
same,"Normalized Luc. act., normalized to control",hG6PD promoter,3.3
same,"luciferase activity normalized to lacZ activity and to a control, hG6PD",hG6PD promoter,3.32
same,"Luc. act., normalized to lacZ",mPgc1b promoter,33.2
same,"Normalized Luc. act., normalized to control",mPgc1b promoter,2.8
same,"luciferase activity normalized to lacZ activity and to a control, mPgc1b",mPgc1b promoter,2.80
same,"luciferase activity normalized to lacZ activity and to a control, hCAR",hCAR promoter,3.60
same,"Luc. act., normalized to lacZ",hCAR promoter,113.6
same,"Normalized Luc. act., normalized to control",hCAR promoter,3.6
"TLX: Tailless (homolog of drosophila) (NR2E1), cDNA driver","Luc. act., normalized to lacZ",mADRP promoter,259.2
same,"Normalized Luc. act., normalized to control",mADRP promoter,0.5
same,mADRP promoter reporter activity,mADRP promoter,0.52
same,"Normalized Luc. act., normalized to control",MCP-1 promoter,0.6
same,"Luc. act., normalized to lacZ",MCP-1 promoter,60.9
same,mMCP-1 promoter reporter activity,MCP-1 promoter,0.57
same,"Luc. act., normalized to lacZ",SREBP1c promoter,352.4
same,"Normalized Luc. act., normalized to control",SREBP1c promoter,1.1
same,mSREBP1-c promoter reporter activity,SREBP1c promoter,1.09
same,"Luc. act., normalized to lacZ",hG6PD promoter,107.9
same,"Normalized Luc. act., normalized to control",hG6PD promoter,2.9
same,"luciferase activity normalized to lacZ activity and to a control, hG6PD",hG6PD promoter,2.89
same,"Luc. act., normalized to lacZ",mPgc1b promoter,4.5
same,"Normalized Luc. act., normalized to control",mPgc1b promoter,0.4
same,"luciferase activity normalized to lacZ activity and to a control, mPgc1b",mPgc1b promoter,0.38
same,"luciferase activity normalized to lacZ activity and to a control, hCAR",hCAR promoter,0.56
same,"Luc. act., normalized to lacZ",hCAR promoter,17.6
same,"Normalized Luc. act., normalized to control",hCAR promoter,0.6
"VDR: Vitamin D Receptor (NR1I1), cDNA driver","Luc. act., normalized to lacZ",mADRP promoter,766.6
same,"Normalized Luc. act., normalized to control",mADRP promoter,1.5
same,mADRP promoter reporter activity,mADRP promoter,1.54
same,"Normalized Luc. act., normalized to control",MCP-1 promoter,2.0
same,"Luc. act., normalized to lacZ",MCP-1 promoter,215.8
same,mMCP-1 promoter reporter activity,MCP-1 promoter,2.02
same,"Luc. act., normalized to lacZ",SREBP1c promoter,460.1
same,"Normalized Luc. act., normalized to control",SREBP1c promoter,1.4
same,mSREBP1-c promoter reporter activity,SREBP1c promoter,1.43
same,"Luc. act., normalized to lacZ",hG6PD promoter,43.1
same,"Normalized Luc. act., normalized to control",hG6PD promoter,1.2
same,"luciferase activity normalized to lacZ activity and to a control, hG6PD",hG6PD promoter,1.15
same,"Luc. act., normalized to lacZ",mPgc1b promoter,6.85
same,"Normalized Luc. act., normalized to control",mPgc1b promoter,0.6
same,"luciferase activity normalized to lacZ activity and to a control, mPgc1b",mPgc1b promoter,0.58
same,"luciferase activity normalized to lacZ activity and to a control, hCAR",hCAR promoter,0.83
same,"Luc. act., normalized to lacZ",hCAR promoter,26.1
same,"Normalized Luc. act., normalized to control",hCAR promoter,0.8
B1,"Luc. act., normalized to lacZ",mADRP promoter,729.1
same,"Normalized Luc. act., normalized to control",mADRP promoter,1.5
same,mADRP promoter reporter activity,mADRP promoter,1.47
same,"Normalized Luc. act., normalized to control",MCP-1 promoter,0.7
same,"Luc. act., normalized to lacZ",MCP-1 promoter,78.0
same,mMCP-1 promoter reporter activity,MCP-1 promoter,0.73
same,"Luc. act., normalized to lacZ",SREBP1c promoter,263.6
same,"Normalized Luc. act., normalized to control",SREBP1c promoter,0.8
same,mSREBP1-c promoter reporter activity,SREBP1c promoter,0.82
same,"Luc. act., normalized to lacZ",hG6PD promoter,34.8
same,"Normalized Luc. act., normalized to control",hG6PD promoter,0.9
same,"luciferase activity normalized to lacZ activity and to a control, hG6PD",hG6PD promoter,0.93
same,"Luc. act., normalized to lacZ",mPgc1b promoter,6.4
same,"Normalized Luc. act., normalized to control",mPgc1b promoter,0.5
same,"luciferase activity normalized to lacZ activity and to a control, mPgc1b",mPgc1b promoter,0.54
same,"luciferase activity normalized to lacZ activity and to a control, hCAR",hCAR promoter,15.62
same,"Luc. act., normalized to lacZ",hCAR promoter,493.6
same,"Normalized Luc. act., normalized to control",hCAR promoter,15.6
